Reference: patent US20050233413A1, “Neuroprotective polypeptides and methods of use” (priority 2002, published 2005)
Where two headings read alike, the source gives them in different places. Where no end group is shown, it is not given here. [ ]: non-standard residue; d: D form. pS = N[C@@H](COP(=O)(O)O)C(=O)O

Key:
Format in all cases: cell-based
[1] = system: F11 cells transfected with V642I-APP cDNA; test: F11 cell death by V642I-APP transfection (Trypan blue exclusion); details: for cytotoxicity by V642I-APP in the presence of peptide (% dead cells of total cells): each peptide 10 μM, V642I-APP alone 53.7±1.2%, without transfection 9.0±1.4; for % dead cells of total cells: 72 hr after transfection
Text: (§1) In one assay, transfection with V642I-APP causes cell death in F11 neuronal hybrid cells. In the other, treatment with Aβ peptides causes cell death in primary cultured cortical neurons.
(§2) F11 cells, the hybrid of a rat embryonic-day-13 primary cultured primary neuron and a mouse neuroblastoma cell, are one of the best models for primary cultured neurons as they carry representative characteristics of primary neurons, such as generation of action potentials without differentiation by NGF [22]. They have been used in various studies of is neuronal functions. Using these cells, the underlying mechanisms for cytotoxicity by V642I-APP have well been analyzed. Cytotoxicity by V642 mutants of APP has also been confirmed in multiple different systems. F11 cells were grown in Ham's F-12 (GibcoBRL, Gaithersburg, Md.) plus 18% fetal bovine serum (FBS; Hyclone, Logan, Utah) and antibiotics, as described previously. F11 cells (7×10^4 cell/well in a 6-well plate cultured in Ham's F-12 plus 18% FBS for 12-16 hr) were transfected with plasmids encoding FAD genes by lipofection [FAD cDNA 2 μg, LipofectAMINE 4 μl, PLUS reagent 8 μl (GibcoBRL)] in the absence of serum for 3 hr, and were incubated with Ham's F-12 plus 18% FBS for 2 hr. Then, culture media were changed to Ham's F-12 plus 10% FBS with or without HN peptides, and cells were cultured for an additional 67 hr. Seventy-two hr after transfection, cell mortality was measured by Trypan blue exclusion assay, performed as follows. Cells were suspended by pipetting gently, and 50 μl of 0.4% (finally 0.08%) Trypan blue solution (Sigma, St Louis, Mo.) was mixed with 200 μl of the cell suspension at room temperature. Stained cells were counted within 3 min after the mixture with Trypan blue solution.

[2] = system: Aβ and V642I-APP
Text: as §2
(§3) The primary culture of mouse cortical neurons was performed in poly-L-lysine-coated 24-well plates or 96-well plates (Sumitomo Bakelite, Akita, Japan), in the absence of serum and the presence of N2 supplement, as described previously. The purity of neurons by this method was >98%. Prepared neurons (for neurons seeded in 96-well plates: 2.5×10^4 or 5×10^4 cells/well, 100 μl culture medium/well; for neurons seeded in 24-well plates: 1.25×10^5 cells/well, 250 μl culture medium/well) were preincubated with or without 10 μM (in case for the experiment with 10 μM HN) synthetic HN for 16 hr, and treated with 25 μM Aβ in the presence or absence of 10 μM HN for 72 hr, respectively. As primary neurons were vulnerable to transient dryness during medium exchange, we treated neurons with 25 μM Aβ as follows. First, a half volume (50 μl for neurons in 96-well plates; 125 μl for neurons in 24-well plates) of old medium was discarded. Then, the same volume (50 μl for neurons in 96-well plates; 125 μl for neurons in 24-well plates) of prewarned fresh medium containing 10 μM HN and 50 μM Aβ (Aβ was directly resolved) was added to the culture. The Aβ peptides used at 25 μM to induce neurotoxicity formed aggregation in the medium during the cell culture at 37° C. for 72 hr. as described. The WST-8 cell viability assay was performed, using Cell Counting Kit-8 (Wako Pure Chemical Industries, Osaka, Japan), as described previously.
(§4) Calcein assay was performed with Calcein-AM {3′,6′-di-(O-acetyl)-2′,7′-bis [N,N-bis(carboxymethyl)aminomethyl] fluorescein, tetraacetoxymethyl ester; Dojindo}, as described previously. These assays were simultaneously performed in the experiments with neurons seeded in 96-well plates, as follows. Seventy-two hours after Aβ treatment, cells were added with the mixture of 10 μl WST-8 solution and 1 μl of 600 μM Calcein-AM. After 2 hr incubation in a CO2 incubator at 37° C., WST-8 absorbance was measured as OD450. After exchanging the medium to PBS to lower the background, Calcein-specific fluorescence (ex=485 nm, em=535 nm) was observed by fluorescence microscopy or measured by a spectrofluorometer (Wallac1420 ARVOsx Multi Label Counter). […]

[3] = system: primary cultured neurons treated with 25 μM Aβ1-43; details: for Calcein fluorescence, percentage of neurons without treatment: 72 hours, means±S.D.
Method: as §1, §3
Calcein assay was performed with Calcein-AM {3′,6′-di-(O-acetyl)-2′,7′-bis [N,N-bis(carboxymethyl)aminomethyl] fluorescein, tetraacetoxymethyl ester; Dojindo}, as described previously. These assays were simultaneously performed in the experiments with neurons seeded in 96-well plates, as follows. Seventy-two hours after Aβ treatment, cells were added with the mixture of 10 μl WST-8 solution and 1 μl of 600 μM Calcein-AM. After 2 hr incubation in a CO2 incubator at 37° C., WST-8 absorbance was measured as OD450. After exchanging the medium to PBS to lower the background, Calcein-specific fluorescence (ex=485 nm, em=535 nm) was observed by fluorescence microscopy or measured by a spectrofluorometer (Wallac1420 ARVOsx Multi Label Counter). Most cell viability data using Calcein assay and WST-8 assay were obtained from neurons seeded at 5×10^4 cells/well in 96-well plates (high-density neurons) and confirmed by both assays with the cells seeded at 2.5×10^4 cells/well (low-density neurons).
Some experiments for Calcein assay were performed with neurons seeded in 24-well plates. […] In most experiments using primary neurons, four independent experiments were performed and the means? S. D. of the results were discussed.

[4] = system: Aβ and four FAD genes (V642I-APP, NL-APP, M146L-PS1, and N141I-PS2); details: Table 5, marked *
Text: as §2, §3, §4

[5] = 25 μM Aβ1-43 + 10 pM peptide, Aβ alone 8.9 ± 0.8
[6] = V642I-APP + 10 pM peptide, means±S.D., V642I-APP alone 52.9 ± 1.1

CC[C@H](C)[C@H](NC(=O)[C@H](CCC(=O)O)NC(=O)[C@H](CO)NC(=O)[C@@H](NC(=O)[C@H](CC(C)C)NC(=O)[C@H](CC(C)C)NC(=O)[C@H](CC(C)C)NC(=O)[C@H](CC(C)C)NC(=O)[C@H](CS)NC(=O)[C@H](CO)NC(=O)[C@H](Cc1ccccc1)NC(=O)CNC(=O)[C@H](CCCNC(=N)N)NC(=O)[C@@H]1CCCN1C(=O)[C@H](C)NC(=O)[C@@H](N)CCSC)[C@@H](C)O)C(=O)N[C@@H](CC(=O)O)C(=O)N[C@@H](CC(C)C)C(=O)N1CCC[C@H]1C(=O)N[C@H](C(=O)N[C@@H](CCCCN)C(=O)N[C@@H](CCCNC(=N)N)C(=O)N[C@@H](CCCNC(=N)N)C(=O)N[C@@H](C)C(=O)O)C(C)C [HN, reference compound] was tested, and the “cytotoxicity by V642I-APP in the presence of peptide (% dead cells of total cells)” value [1] was 11.0±0.1%.
For “(S14P)HN: HN derivative with Pro substitution at Ser14”, the “cytotoxicity by V642I-APP in the presence of peptide (% dead cells of total cells)” value [1] was 12.5±1.0%.
With “EFLIVIKSMAPRGFSALLLLTSEIDLPVKRRA [EF-HNA]” the Full protection ([2]; Table 5, marked **) was “NE** (the corresponding peptide had no cytoprotective effect at 10 μM)” and the IC50 ([2]; Table 5, marked **) was greater than 10 µM.
In the case of “EFLIVIKSMAPRGFSCLLLLTGEIDLPVKKKK [EF-HNG-KKK]”, the IC50 [3] is reported as roughly 1 nM, the “concentration of full neuroprotection against Aβ1-43” value ([3]; 25 μM Aβ1-43) is reported as 10 to 100 nM and the “suppression of Aβ neurotoxicity in the presence of 100 μM EFLIVIKS” value ([3]; 25 μM Aβ1-43, EF-HN and EF-HNG at 10 μM, WST-8 and Calcein assays) is reported as “could not suppress Aβ neurotoxicity at all”. For the same compound, the IC50 [1] was roughly 0.1 nM, the “concentration of full cytoprotection / complete suppression against V642I-APP” value ([1]; F11 cells) was 10 nM and the “Full protection (minimal concentration that exerted full cytoprotection)” value ([2]; Table 5, marked **) was “˜10 nM”. For the same compound, the “potency relative to EF-HNG” value ([2]; times less potent than EF-HNG) was roughly 10 times.
In the case of “MAPRGF(D-Ser)CLLLLTSEIDLPVKRRA [D-Ser7 HN]”, the “Full protection (minimal concentration that exerted full cytoprotection)” value [4] is reported as “˜10 μM”.
In the case of “MAPRGF(p-S)CLLLLT(p-S)EIDLPVKRRA (MAPRGF[pS]CLLLLT[pS]EIDLPVKRRA) [P-S7/14 HN]”, the “Calcein fluorescence, percentage of neurons without treatment” value [3, 5] is reported as 9.3 ± 0.4%, the “Calcein fluorescence, percentage of neurons without treatment” value ([3]; 25 μM Aβ1-43 + 100 pM peptide) is reported as 8.8 ± 0.3% and the “Calcein fluorescence, percentage of neurons without treatment” value ([3]; 25 μM Aβ1-43 + 1 nM peptide) is reported as 8.8 ± 0.2%. For the same compound, the “Calcein fluorescence, percentage of neurons without treatment” value ([3]; 25 μM Aβ1-43 + 10 nM peptide) was 8.7 ± 0.3%, the “Calcein fluorescence, percentage of neurons without treatment” value ([3]; 25 μM Aβ1-43 + 100 nM peptide) was 8.6 ± 0.2% and the “Calcein fluorescence, percentage of neurons without treatment” value ([3]; 25 μM Aβ1-43 + 1 μM peptide) was 84.0 ± 5.8 %. The “Calcein fluorescence, percentage of neurons without treatment” value ([3]; 25 μM Aβ1-43 + 10 μM peptide) was 103.3 ± 0.8 %, the “% dead cells of total cells” value [1, 6] was 54.8 ± 0.5% and the “% dead cells of total cells” value ([1]; V642I-APP + 100 pM peptide) was 54.1 ± 1.5%. For the same compound, the “% dead cells of total cells” value ([1]; V642I-APP + 1 nM peptide) was 52.9 ± 1.6%, the “% dead cells of total cells” value ([1]; V642I-APP + 10 nM peptide) was 53.8 ± 3.1% and the “% dead cells of total cells” value ([1]; V642I-APP + 100 nM peptide) was 38.2 ± 1.9 %. For the same compound, the “% dead cells of total cells” value ([1]; V642I-APP + 1 μM peptide) was 22.7 ± 5.2 %, the “% dead cells of total cells” value ([1]; V642I-APP + 10 μM peptide) was 11.8 ± 1.2 % and the “Full protection (minimal concentration that exerted full cytoprotection)” value ([2]; Table 5, marked **) was “˜10 μM”.
With “MAPRGF(p-S)CLLLLTSEIDLPVKRRA (MAPRGF[pS]CLLLLTSEIDLPVKRRA) [P-S7 HN]” the “Calcein fluorescence, percentage of neurons without treatment” value [3, 5] was 9.0 ± 0.9%, the “Calcein fluorescence, percentage of neurons without treatment” value ([3]; 25 μM Aβ1-43 + 100 pM peptide) was 8.7 ± 0.8% and the “Calcein fluorescence, percentage of neurons without treatment” value ([3]; 25 μM Aβ1-43 + 1 nM peptide) was 8.8 ± 0.9%. The “Calcein fluorescence, percentage of neurons without treatment” value ([3]; 25 μM Aβ1-43 + 10 nM peptide) was 8.8 ± 0.6%, the “Calcein fluorescence, percentage of neurons without treatment” value ([3]; 25 μM Aβ1-43 + 100 nM peptide) was 10.5 ± 0.9% and the “Calcein fluorescence, percentage of neurons without treatment” value ([3]; 25 μM Aβ1-43 + 1 μM peptide) was 84.2 ± 6.8 %. For the same compound, the “Calcein fluorescence, percentage of neurons without treatment” value ([3]; 25 μM Aβ1-43 + 10 μM peptide) was 103.3 ± 2.8 %, the “% dead cells of total cells” value [1, 6] was 53.7 ± 0.8% and the “% dead cells of total cells” value ([1]; V642I-APP + 100 pM peptide) was 53.1 ± 1.7%. For the same compound, the “% dead cells of total cells” value ([1]; V642I-APP + 1 nM peptide) was 54.8 ± 1.6%, the “% dead cells of total cells” value ([1]; V642I-APP + 10 nM peptide) was 54.1 ± 1.4% and the “% dead cells of total cells” value ([1]; V642I-APP + 10 μM peptide) was 11.6 ± 1.1 %. For the same compound, the “Full protection (minimal concentration that exerted full cytoprotection)” value [4] was “˜10 μM”.
